# Data reported in US10231965B2, “Molecules for administration to ROS1 mutant cancer cells” (Ignyta, Inc., priority 2014, dated 2019).
# Entries after “also recorded” stand apart in the source; their conditions may differ.
# Assays:
# advanced solid tumors = assay: Dose escalation study: tumor response by RECIST, all patients; format: in vivo, human
# Experimental: (§1) A dose escalation study of N-[5-(3,5-difluorobenzyl)-1H-indazol-3-yl]-4-(4-methyl-piperazin-1-yl)-2-(tetrahydro-2H-pyran-4-ylamino) benzamide was conducted in human patients with advanced solid tumors. N-[5-(3,5-difluorobenzyl)-1H-indazol-3-yl]-4-(4-methyl-piperazin-1-yl)-2-(tetrahydro-2H-pyran-4-ylamino) benzamide was dosed orally once/day in a 4 day on, 3 day off schedule for 3 weeks, followed by a 7 day rest period, in continuous 28-day cycles (Schedule A); once/day in continuous 28-day cycles (Schedule B); and once/day in a 4 day on, 3 day off schedule without interruption in continuous 28-day cycles (Schedule C). A minimum of 3 patients were enrolled at each dose level. Endpoints include safety, PK, and tumor response by response evaluation criteria in solid tumors (RECIST).
# (§2) Schedule A evaluated ascending oral doses of N-[5-(3,5-difluorobenzyl)-1H-indazol-3-yl]-4-(4-methyl-piperazin-1-yl)-2-(tetrahydro-2H-pyran-4-ylamino) benzamide once daily (fasted state) in a 4-day on, 3-day off schedule for 3 weeks, followed by a 7-day rest period, in continuous 28-day cycles. Dose escalation was conducted according to the standard ‘3+3’ scheme.
# (§3) Schedule B evaluated ascending oral doses of N-[5-(3,5-difluorobenzyl)-1H-indazol-3-yl]-4-(4-methyl-piperazin-1-yl)-2-(tetrahydro-2H-pyran-4-ylamino) benzamide once daily (fed state) without rest, in continuous 28-day cycles.
# (§4) Schedule C evaluated ascending oral doses of N-[5-(3,5-difluorobenzyl)-1H-indazol-3-yl]-4-(4-methyl-piperazin-1-yl)-2-(tetrahydro-2H-pyran-4-ylamino) benzamide once daily (fed state) in a 4-day on, 3-day off schedule for 4 weeks without rest, in continuous 28-day cycles.
# Neuroblastoma (NB) = assay: Dose escalation study: tumor response by RECIST, neuroblastoma patient; format: in vivo, human; conditions: person, metastatic NB, ALK mutation, Schedule A
# Experimental: as §1, §2
# Schedule B evaluated ascending oral doses of N-[5-(3,5-difluorobenzyl)-1H-indazol-3-yl]-4-(4-methyl-piperazin-1-yl)-2-(tetrahydro-2H-pyran-4-ylamino) benzamide once daily (fed state) without rest, in continuous 28-day cycles. […]
# Colorectal Cancer (CRC) = assay: Dose escalation study: tumor response by RECIST, CRC patient; format: in vivo, human; conditions: person, metastatic CRC, TrkA rearrangement, 1600 mg/m^2, Schedule A
# Experimental: as §1, §2, §3, §4
# [1] = system: Non-Small Cell Lung Cancer (NSCLC); assay: Dose escalation study: tumor response by RECIST, NSCLC patients; format: in vivo, human
# Experimental: as §1, §2, §3, §4
# [2] = system: human patients with advanced solid tumors; assay: Dose escalation study in human patients with advanced solid tumors: safety, adverse events; format: in vivo
# Experimental: as §1, §2, §3, §4
# [3] = Dose escalation study in human patients with advanced solid tumors: PK; format: in vivo
# Experimental: as §1, §2, §3, §4
structure (smiles),measurement,setting,value
"CN1CCN(c2ccc(C(=O)Nc3n[nH]c4ccc(Cc5cc(F)cc(F)c5)cc34)c(NC3CCOCC3)c2)CC1 [N-[5-(3,5-difluorobenzyl)-1H-indazol-3-yl]-4-(4-methyl-piperazin-1-yl)-2-(tetrahydro-2H-pyran-4-ylamino) benzamide]",number of partial responses durable >9 cycles,advanced solid tumors; 25 patients evaluated,3
same,number of partial responses,"advanced solid tumors; 25 patients evaluated, NSCLC, CRC and NB with TrkA, ROS1, and ALK molecular alterations",5
same,complete response,"advanced solid tumors; 25 patients evaluated, patient with NSCLC with a ROS1 molecular alteration",a complete response
same,number of patients with prolonged stable disease (11+ cycles),advanced solid tumors; NSCLC and pancreatic adenocarcinoma,2
same,cycles until response achieved,Neuroblastoma (NB); 200 to 1200 mg/m^2/day,12 cycles
same,tumor response,"Neuroblastoma (NB); started at 200 mg/m^2/day, escalated to 1200 mg/m^2/day",partial response
same,tumor response,"Colorectal Cancer (CRC); s/p chemotherapy, cetuximab",partial response
same,cycles until response achieved,Colorectal Cancer (CRC),1 cycle
same,duration of partial response before progressive disease,Colorectal Cancer (CRC),4 cycles
same,tumor response,"[1]; person one, ROS1 rearrangement, s/p 3 cycles of chemotherapy, 400 mg/m2/day, Schedule C",partial response
same,cycles until response achieved,"[1]; person one, ROS1 rearrangement, 400 mg/m2/day, Schedule C",1 cycle
same,tumor response,"[1]; person two, ROS1 rearrangement, s/p 2 cycles of chemotherapy, 400 mg/m2/day, Schedule C",complete response
same,cycles until response achieved,"[1]; person two, ROS1 rearrangement, 400 mg/m2/day, Schedule C",2 cycles
same,cycles until response achieved,"[1]; person, ALK rearrangement, 1200 mg/m2/day, Schedule A",4 cycles
same,tumor response,"[1]; person, CNS metastases, ROS1 rearrangement, s/p chemotherapy, erlotinib, 1200 mg/m^2/day, Schedule A",partial response
same,cycles until response achieved,"[1]; person, CNS metastases, ROS1 rearrangement, 1200 mg/m^2/day, Schedule A",2 cycles
same,tumor response,"[1]; person, metastatic adenocarcinoma, ALK rearrangement, s/p chemotherapy, crizotinib, 1200 mg/m2/day, Schedule A",partial response
same,Abdominal pain G1 (%),"[2]; 25 patients, all schedules",16%
same,"Abdominal pain G1, number of patients","[2]; 25 patients, all schedules",4
same,Abdominal pain G2 (%),"[2]; 25 patients, all schedules",8%
same,"Abdominal pain G2, number of patients","[2]; 25 patients, all schedules",2
same,Abdominal pain Total (%),"[2]; 25 patients, all schedules",24%
same,"Abdominal pain Total, number of patients","[2]; 25 patients, all schedules",6
same,Arthralgia G1 (%),"[2]; 25 patients, all schedules",12%
same,"Arthralgia G1, number of patients","[2]; 25 patients, all schedules",3
same,Arthralgia G2 (%),"[2]; 25 patients, all schedules",12%
same,"Arthralgia G2, number of patients","[2]; 25 patients, all schedules",3
same,Arthralgia Total (%),"[2]; 25 patients, all schedules",24%
same,"Arthralgia Total, number of patients","[2]; 25 patients, all schedules",6
same,Asthenia G1 (%),"[2]; 25 patients, all schedules",36%
same,"Asthenia G1, number of patients","[2]; 25 patients, all schedules",9
same,Asthenia G2 (%),"[2]; 25 patients, all schedules",12%
same,"Asthenia G2, number of patients","[2]; 25 patients, all schedules",3
same,Asthenia Total (%),"[2]; 25 patients, all schedules",52%
same,"Asthenia Total, number of patients","[2]; 25 patients, all schedules",13
same,Back Pain G1 (%),"[2]; 25 patients, all schedules",20%
same,"Back Pain G1, number of patients","[2]; 25 patients, all schedules",5
same,Back Pain G2 (%),"[2]; 25 patients, all schedules",4%
same,"Back Pain G2, number of patients","[2]; 25 patients, all schedules",1
same,Back Pain Total (%),"[2]; 25 patients, all schedules",24%
same,"Back Pain Total, number of patients","[2]; 25 patients, all schedules",6
same,Cough G1 (%),"[2]; 25 patients, all schedules",16%
same,"Cough G1, number of patients","[2]; 25 patients, all schedules",4
same,Cough G2 (%),"[2]; 25 patients, all schedules",4%
same,"Cough G2, number of patients","[2]; 25 patients, all schedules",1
same,Cough Total (%),"[2]; 25 patients, all schedules",20%
same,"Cough Total, number of patients","[2]; 25 patients, all schedules",5
same,Diarrhea G1 (%),"[2]; 25 patients, all schedules",24%
same,"Diarrhea G1, number of patients","[2]; 25 patients, all schedules",6
same,Diarrhea G2 (%),"[2]; 25 patients, all schedules",8%
same,"Diarrhea G2, number of patients","[2]; 25 patients, all schedules",2
same,Diarrhea Total (%),"[2]; 25 patients, all schedules",32%
same,"Diarrhea Total, number of patients","[2]; 25 patients, all schedules",8
same,Dysgeusia G1 (%),"[2]; 25 patients, all schedules",24%
same,"Dysgeusia G1, number of patients","[2]; 25 patients, all schedules",6
same,Dysgeusia G2 (%),"[2]; 25 patients, all schedules",0 (0) %
same,"Dysgeusia G2, number of patients","[2]; 25 patients, all schedules",0 (0)
same,Dysgeusia Total (%),"[2]; 25 patients, all schedules",24%
same,"Dysgeusia Total, number of patients","[2]; 25 patients, all schedules",6
same,Dyspnea G1 (%),"[2]; 25 patients, all schedules",12%
same,"Dyspnea G1, number of patients","[2]; 25 patients, all schedules",3
same,Dyspnea G2 (%),"[2]; 25 patients, all schedules",4%
same,"Dyspnea G2, number of patients","[2]; 25 patients, all schedules",1
same,Dyspnea Total (%),"[2]; 25 patients, all schedules",24%
same,"Dyspnea Total, number of patients","[2]; 25 patients, all schedules",6
same,Headache G1 (%),"[2]; 25 patients, all schedules",24%
same,"Headache G1, number of patients","[2]; 25 patients, all schedules",6
same,Headache G2 (%),"[2]; 25 patients, all schedules",0 (0) %
same,"Headache G2, number of patients","[2]; 25 patients, all schedules",0 (0)
same,Headache Total (%),"[2]; 25 patients, all schedules",24%
same,"Headache Total, number of patients","[2]; 25 patients, all schedules",6
same,Myalgia G1 (%),"[2]; 25 patients, all schedules",24%
same,"Myalgia G1, number of patients","[2]; 25 patients, all schedules",6
same,Myalgia G2 (%),"[2]; 25 patients, all schedules",4%
same,"Myalgia G2, number of patients","[2]; 25 patients, all schedules",1
same,Myalgia Total (%),"[2]; 25 patients, all schedules",28%
same,"Myalgia Total, number of patients","[2]; 25 patients, all schedules",7
same,Nausea G1 (%),"[2]; 25 patients, all schedules",56%
same,"Nausea G1, number of patients","[2]; 25 patients, all schedules",14
same,Nausea G2 (%),"[2]; 25 patients, all schedules",8%
same,"Nausea G2, number of patients","[2]; 25 patients, all schedules",2
same,Nausea Total (%),"[2]; 25 patients, all schedules",64%
same,"Nausea Total, number of patients","[2]; 25 patients, all schedules",16
same,Paresthesia G1 (%),"[2]; 25 patients, all schedules",60%
same,"Paresthesia G1, number of patients","[2]; 25 patients, all schedules",15
same,Paresthesia G2 (%),"[2]; 25 patients, all schedules",0 (0) %
same,"Paresthesia G2, number of patients","[2]; 25 patients, all schedules",0 (0)
same,Paresthesia Total (%),"[2]; 25 patients, all schedules",60%
same,"Paresthesia Total, number of patients","[2]; 25 patients, all schedules",15
same,Pyrexia G1 (%),"[2]; 25 patients, all schedules",24%
same,"Pyrexia G1, number of patients","[2]; 25 patients, all schedules",6
same,Pyrexia G2 (%),"[2]; 25 patients, all schedules",0 (0) %
same,"Pyrexia G2, number of patients","[2]; 25 patients, all schedules",0 (0)
same,Pyrexia Total (%),"[2]; 25 patients, all schedules",24%
same,"Pyrexia Total, number of patients","[2]; 25 patients, all schedules",6
same,Vomiting G1 (%),"[2]; 25 patients, all schedules",28%
same,"Vomiting G1, number of patients","[2]; 25 patients, all schedules",7
same,Vomiting G2 (%),"[2]; 25 patients, all schedules",8%
same,"Vomiting G2, number of patients","[2]; 25 patients, all schedules",2
same,Vomiting Total (%),"[2]; 25 patients, all schedules",36%
same,"Vomiting Total, number of patients","[2]; 25 patients, all schedules",9
same,"possibly drug-related Grade >3 AE observed (asthenia), number","[2]; Grade 3 in one patient, 1200 mg/m^2, Schedule A, subsided with dose reduction to 800 mg/m^2/day",1
same,severity of AEs,[2]; all dosing schedules tested,Most AEs<Grade 2
same,tolerability,"[2]; all dosing schedules tested, intermittent and daily continuous",well tolerated in all dosing schedules tested
same,"DLTs, study discontinuations due to AEs, drug-related SAEs",[2]; any dosing schedule,"No drug limiting toxicities, study discontinuations due to adverse events, or drug-related serious adverse events were reported; also recorded: No DLTs, study discontinuations due to AEs, or drug-related SAEs were reported"
same,most common adverse events (mainly grade 1-2) considered possibly treatment-related,"[2]; human patients, oral","nausea, paresthesia, vomiting, diarrhea, asthenia, myalgia, arthralgia, and dysgeusia"
same,"possibly treatment-related grade 3 AE of asthenia, number","[2]; human patients, oral",one
same,exposure at top dose (reason Schedule A was terminated),"[3]; Schedule A, 1600 mg/m2/day",plateau
same,mean plasma half-life,"[3]; human patients, oral once/day, following administration",17 to 44 h
same,Exposure versus dose,"[3]; human patients, oral, dosing Schedule A",increased in an approximate dose proportional manner up to doses of 800 mg/m^2
